Details: not given

First: CCCOc1cc(N)ccc1C(=O)OCCN(CC)CC.Cl
Second: COc1ccc(N)cc1N
The melting point of the first is higher: 149 °C for the first, 67.5 °C for the second.

First: O=C1C(O)=C(Cl)C(=O)C(O)=C1Cl
Second: O=C1C(Cl)=CC(=NCl)C=C1Cl
The melting point of the first is higher: 284 °C for the first, 66 °C for the second.

Compared with `CC(N)=S`, `NC(=S)Nc1ccccc1Cl` is higher in melting point: 116 °C for the first, 146 °C for the second.

First: CC(=O)Nc1cccc([N+](=O)[O-])c1
Second: COc1ccc([N+](=O)[O-])cn1
The melting point of the first is higher: 155 °C for the first, 108 °C for the second.

First: CC(=O)OC(C)C
Second: CC(C)CC1CCCCC1
The melting point of the first is higher: -73.4 °C for the first, -95 °C for the second.

Compared with `O=C(O)c1ccccc1Nc1cccc(C(F)(F)F)c1`, `c1ccc2c(c1)Cc1ccccc1S2` is lower in melting point: 134 °C for the first, 128 °C for the second.

Going from `O=C1CCc2cccc3c2N1CC3` to `O=C1NC(=O)C2(CCc3ccccc3C2)N1` (centres undefined), the melting point rises from 112 °C to 268 °C.

First: NS(=O)(=O)c1ccc(N2CCCCS2(=O)=O)cc1
Second: CC1=C(C(=O)Nc2ccccc2)S(=O)(=O)CCO1
The melting point of the first is higher: 181 °C for the first, 120 °C for the second.

First: O=C(O)Cc1c[nH]c2ccccc12
Second: O=C(O)CONC(=O)c1ccccc1
The melting point of the first is higher: 168 °C for the first, 140 °C for the second.

Compared with `CC(=O)[C@@]1(O)CC[C@H]2[C@@H]3C[C@H](C)C4=CC(=O)CC[C@]4(C)[C@H]3CC[C@@]21C`, `C[C@]12CCC(=O)C=C1C=C[C@@H]1[C@@H]2CC[C@@]2(C)[C@H]1CC[C@@]21CCC(=O)O1` is lower in melting point: 214 °C for the first, 150 °C for the second.

Compared with `O=C1NCCN1`, `CC(=O)OC[C@H]1O[C@@H](n2ncc(=O)[nH]c2=O)[C@H](OC(C)=O)[C@@H]1OC(C)=O` is lower in melting point: 131 °C for the first, 100 °C for the second.

First: CC(=O)c1c(C)c([N+](=O)[O-])c(C(C)(C)C)c([N+](=O)[O-])c1C
Second: Cc1c([N+](=O)[O-])cc2c(c1[N+](=O)[O-])C(C)(C)CC2(C)C
The melting point of the first is higher: 136 °C for the first, 132 °C for the second.

Going from `CCCCCCCCCCCC=O` to `CCCCCCCCCCCCCCCCCc1ccccc1`, the melting point falls from 44.5 °C to 32 °C.

Compared with `CCCBr`, `CCCNCCC` is higher in melting point: -110 °C for the first, -63 °C for the second.

Going from `Nc1ccc2[nH]ncc2c1` to `Nc1nc2ccccc2[nH]1`, the melting point rises from 176 °C to 230 °C.

Compared with `Ic1cc(I)cc(I)c1`, `Nc1cc(N)cc(C(=O)O)c1` is higher in melting point: 184 °C for the first, 228 °C for the second.

First: CC(=O)N(C(C)=O)c1ccccc1
Second: O=C(S)c1ccccc1
The melting point of the first is higher: 37.5 °C for the first, 24 °C for the second.

Going from `OC(c1ccc(Cl)cc1)(c1cncnc1)c1ccccc1Cl` (centres undefined) to `Cc1ccc(O)c2ccccc12`, the melting point falls from 118 °C to 85.8 °C.

Compared with `NC(=O)OCCCc1ccccc1`, `BrCCc1ccccc1` is lower in melting point: 102 °C for the first, -65.7 °C for the second.

Compared with `CC(C)(C)NC(=O)COC(=O)c1ccccc1`, `CC(C)(O)Cc1ccccc1` is lower in melting point: 112 °C for the first, 24 °C for the second.

With `OCC(O)CI` (centres undefined) the melting point was 48.5 °C.

First: CC(N)=S
Second: NC(=O)Nc1ccccc1F
The log10 Koc (L/kg) of the first is lower: 0.78 for the first, 1.32 for the second.

`CC(=O)Nc1cccc([N+](=O)[O-])c1` and `CC1=C(C(=O)Nc2ccccc2)S(=O)(=O)CCO1` are within 0.2 log units of each other in log10 Koc (L/kg): 1.94 for the first, 1.98 for the second.

First: OC(c1ccc(Cl)cc1)(c1cncnc1)c1ccccc1Cl (centres undefined)
Second: OCc1ccc(-c2ccccc2)cc1
The log10 Koc (L/kg) of the first is higher: 2.78 for the first, 2.54 for the second.

With `CC(N)=S` the ready biodegradability was “not readily biodegradable”.
For `CC(=O)OC(C)C`, the ready biodegradability was “readily biodegradable”.
For `N#CSCSc1nc2ccccc2s1`, the ready biodegradability was “not readily biodegradable”.
For `CCCNCCC`, the ready biodegradability was “readily biodegradable”.

First: CCN(CC)CCN
Second: CCCNCCC
The boiling point of the first is higher: 144 °C for the first, 109 °C for the second.

Going from `CC(=O)OC(C)C` to `CCC(C)O[N+](=O)[O-]` (centres undefined), the boiling point rises from 88.6 °C to 124 °C.

First: CC(C)CC1CCCCC1
Second: C[C@@H]1CCC[C@H]1O
The boiling point of the first is higher: 171 °C for the first, 150 °C for the second.

First: CCCCC(=O)OCc1ccco1
Second: C=CCOC(=O)c1ccco1
The boiling point of the first is higher: 228 °C for the first, 208 °C for the second.

First: COc1ccc(N)cc1N
Second: CCOc1ccccc1N
The boiling point of the first is lower: 221 °C for the first, 232 °C for the second.

First: CCCBr
Second: CCC(C)CCBr (centres undefined)
The boiling point of the first is lower: 71.1 °C for the first, 148 °C for the second.

Going from `CC(C)C=CCO` to `CCCCCC=CC(C)C`, the boiling point rises from 159 °C to 161 °C.

Going from `CCCCCCCCCCCCCCCCCc1ccccc1` to `BrCCc1ccccc1`, the boiling point falls from 397 °C to 219 °C.

First: CCOC(=O)C1(C(=O)OCC)CC1
Second: CCOC(=O)CC(O)(CC(=O)OCC)C(=O)OCC
The boiling point of the first is lower: 216 °C for the first, 294 °C for the second.

First: COCC1CO1 (centres undefined)
Second: CCCc1ccc(N)cc1
The boiling point of the first is lower: 113 °C for the first, 225 °C for the second.

Compared with `N#Cc1ccc(OC(F)(F)F)cc1`, `c1ccc2c(c1)Cc1ccccc1S2` is higher in boiling point: 192 °C for the first, 341 °C for the second.

First: CC(C)(O)Cc1ccccc1
Second: CC(C)CC(C)CC(C)C
The boiling point of the first is higher: 215 °C for the first, 148 °C for the second.

Going from `CC(=O)OC(C)C` to `CCCNCCC`, the log10 Henry constant (atm·m³/mol) falls from -3.56 to -4.29.

Going from `CC(=O)OC(C)C` to `CCCNCCC`, the log10 Koa rises from 2.93 to 3.59.

In the case of `Clc1cc2c(Cl)c(Cl)c(Cl)c(Cl)c2cc1Cl`, the log10 Koa is reported as 9.58.

Going from `CC(=O)OC(C)C` to `CC(C)CC1CCCCC1`, the log10 vapour pressure (mmHg) falls from 1.78 to 0.684.

Going from `Clc1cc2c(Cl)c(Cl)c(Cl)c(Cl)c2cc1Cl` to `O=C1CCc2cccc3c2N1CC3`, the log10 vapour pressure (mmHg) rises from -6.46 to -5.92.

Compared with `CCCCCCCCCCCCF`, `CCCCCCCCCCCC=O` is lower in log10 vapour pressure (mmHg): -0.682 for the first, -1.82 for the second.

First: CCCBr
Second: CCCNCCC
The log10 vapour pressure (mmHg) of the first is higher: 2.04 for the first, 1.3 for the second.

Compared with `CC1=C(C(=O)Nc2ccccc2)S(=O)(=O)CCO1`, `BrCCc1ccccc1` is higher in log10 vapour pressure (mmHg): -7.38 for the first, -0.612 for the second.

For `CCN(Cc1ccc(Cl)nc1)/C(=C/[N+](=O)[O-])NC`, the log10 vapour pressure (mmHg) was -11.1.

Same assay, conditions: fish

Compared with `N#Cc1cccc(C#N)c1`, `N#CSCSc1nc2ccccc2s1` is higher in log10 BCF: 0.75 for the first, 2.32 for the second.

First: O=[N+]([O-])c1c(Cl)cc(Cl)cc1Cl
Second: Brc1cc(Br)c(Oc2c(Br)cc(Br)c(Br)c2Br)c(Br)c1Br
The log10 BCF of the first is lower: 2.47 for the first, 5.3 for the second.

Molecule `CCCCC(CC)COP(=O)(O)OCC(CC)CCCC` (centres undefined) has a log10 BCF of 0.64.

First: N#Cc1cccc(C#N)c1
Second: N#CSCSc1nc2ccccc2s1
The log10 biotransformation half-life (days) of the first is higher: -0.62 for the first, -1.01 for the second.

Going from `O=[N+]([O-])c1c(Cl)cc(Cl)cc1Cl` to `Clc1cc(Cl)c(Oc2cc(Cl)c(Cl)cc2Cl)cc1Cl`, the log10 biotransformation half-life (days) rises from 0.71 to 1.98.

Compared with `Clc1ccc(C(c2ccc(Cl)cc2)C(Cl)Cl)cc1`, `OC(c1ccc(Cl)cc1)(c1cncnc1)c1ccccc1Cl` (centres undefined) is lower in log10 biotransformation half-life (days): 2.44 for the first, 0.57 for the second.

First: Clc1cc(Cl)c(Cl)c(-c2c(Cl)c(Cl)c(Cl)c(Cl)c2Cl)c1Cl
Second: CC(C)CC1CCCCC1
The log10 biotransformation half-life (days) of the first is higher: 2.63 for the first, 0.91 for the second.
